According to patent publication US9931328B2, “Topical retinoid compositions” (DR. REDDY'S LABORATORIES, LTD., priority 2015, dated 2018):

Columns and labels:
[1] = Excipients compatibility study with tazarotene; assay type: physicochemical
Method: Excipient compatibility study for tazarotene was carried out with various pharmaceutically acceptable excipients. The tazarotene was tested in a set of compatibility screening studies with the excipients in closed vials containing tazarotene. The excipients physical mixture were incubated in ovens with and without moisture at 60° C. or 40° C./75% RH for 4 weeks.

[2] = Multiple dose bioavailability study versus TAZORAC 0.1% cream; assay type: in vivo, healthy male subjects; conditions: after topical application of test or reference product
Method: The study was a single-center, randomized, multiple dose, laboratory-blinded, open-label, 3-arm, parallel design in healthy male subjects. The following investigational products were to be administered: 1) Test product: composition of example 1 (tazarotene 0.1%) and 2) reference: TAZORAC cream 0.1%. Following were treatment arms: 1) Treatment 1: Test product applied twice daily, in the morning and evening, 12 hours apart; 2) Treatment 2: Test product applied once daily, in the morning; and 3) Treatment 3: Reference product applied once daily, in the morning. For each study arm (n=16), approximately 5 g of the Test or Reference product was to be applied to the subjects face, neck, shoulders, upper chest and upper back (total approximately equivalent to 15% body surface area (BSA)) over 14 consecutive days (Days 1 to 14). Blood sample were collected time to time as per the schedule of the study.

In the case of `CCOC(=O)c1ccc(C#Cc2ccc3c(c2)C(C)(C)CCS3)nc1` [tazarotene, Tazarotene], the excipient compatibility ([1]; with benzyl alcohol, lactic acid, polysorbate 80) is reported as “incompatible”, the excipient compatibility ([1]; with excipients of examples 1, 2, 3 (carbomer type A and B, cocobetaine, sodium lauryl sarcosinate, stearyl alcohol, cetyl alcohol, glycerine, vitamin E TPGS, gluconolactone, BHT, parabens)) is reported as “compatible” and the “concentrations of the parent compound detected in plasma samples” value [2] is reported as “Very low concentrations”.
